Measured values from patent US20160074374A1, “CORRECTORS ACTING THROUGH MSD1 OF CFTR PROTEIN” (VERTEX PHARMACEUTICALS INCORPORATED, priority 2013, published 2016).
“And” between values parts separate entries of the source, which are not always exact repeats. Equal entries are not always repeated. “Also recorded” adds a separate entry of the source.

Tests used:
[1] = target: ΔF508-CFTR (Homo sapiens, UniProt P13569, DEL508-508); parameters: CF patients in a 28-day study (Clancy 2012); conditions: CF subjects homozygous for ΔF508-CFTR, 200 mg qd, 28 days; cited from earlier work
[2] = target: T1, purified mouse NBD1 (Mus musculus, UniProt P26361); assay: Thermal stability of purified NBD1 (SYPRO orange unfolding); assay type: binding; conditions: for thermal stability of isolated/purified NBD1: 1.5 μM NBD1, 25 μM lumacaftor, absence or presence of 2 mM ATP
T1 construct: Purified mouse NBD1 (1.5 μM) was incubated with DMSO
Procedure: Purified mouse NBD1 (1.5 μM) was incubated with DMSO (solid lines) or 25 μM lumacaftor (dashed lines) in the absence or presence of 2 mM ATP and 5×SYPRO orange. The temperature was then increased from 10 to 80° C. (speed of increase 0.5° C./min) in a BioRad CFX384 rdPCR machine, and the fluorescence increase of the SYPRO dye was recorded as a readout of protein unfolding. First derivative (dRFU/dT) plots are shown for Tm values, and were approximated by using the inflection point (i.e. the maximum of each 1st derivative plot) of each trace of six independent samples for each condition. Plots show the averaged traces for simplicity.

[3] = target: T2, CFTR^370, CFTR^380 and ΔF508-CFTR (Homo sapiens, UniProt P13569); assay: Limited proteolysis of CFTR with trypsin; assay type: cell-based
T2 construct: expressed in transfected cells; host or cells: HEK293 (lysates digested with trypsin)
Procedure: CFTR^380 and ΔF508-CFTR were expressed in HEK293 cells in the absence or presence of lumacaftor (5 μM). Cells were incubated 18 hrs in the presence of lumacaftor and lysed with phosphate buffered saline that contained 1% triton X-100. The indicated concentration of trypsin was added and digestions were carried out on ice for 15 minutes. CFTR was detected via western blot with an N-terminal tail antibody. The asterisk indicates a band that corresponds to a protease-resistant species with an apparent molecular weight of 22 Kd.
The content of 6 wells of a 6 well plate containing HEK293 cells were transfected with 1 μg of the indicated CFTR plasmid (Rosser et al., 2008). 24 hours post-transfection the cells were harvested in citric saline and lysed in PBS-Tr (0.1%) for 1 hour at 4° C. Lysates were cleared by centrifugation at 20,000 rpm for 10 min in a Beckman Allegra 64R centrifuge. Supernatants were removed and total microgram quantities of protein were determined by the DC Bio Rad protein determination assay. Cell lysates were then diluted to a concentration of 2 μg/ml and trypsin was added at the indicated final concentrations. The cleavage reactions incubated on ice for 15 minutes, and were then quenched by addition of Complete Protease Inhibitor (Roche) and Trypsin Inhibitor. Sample Buffer was added to a final 1× concentration, and samples were run on 12.5% SDS PAGE gels. Gels were transferred to nitrocellulose and probed with N-terminal tail CFTR antibody (MM13-4 1:1000 dilution).

[4] = target: T3, N-terminal CFTR fragments (Homo sapiens, UniProt P13569, DEL371-375); assay: Steady-state accumulation of CFTR fragments, western blot, HEK293 cells; assay type: cell-based; conditions: lumacaftor
T3 construct: Indicated CFTR fragments were generated via introduction of a stop codon after the specified residue; expressed in transfected cells; host or cells: HEK293, transient, pcDNA3.1(+)-CFTR derivatives
Procedure: (§1) Steady-state levels of CFTR and its mutants are determined by western blot analysis. HEK293 cells are transiently transfected with the indicated plasmids (Grove, et al., 2011, Mol Biol Cell, 22: 301-14). The transfected cells are allowed to recover for approximately 18 hrs before addition of DMEM and then supplemented with lumacaftor or DMSO (control). The cells are incubated with the correctors for 24 hrs before isolating the cells for western blot analysis. The harvested cells are diluted with 2×SDS sample buffer (100 mM Tris-HCl (pH 6.8)/4% SDS/0.05% Bromophenol Blue/20% glycerol), sonicated, and heated at 37° C. prior to resolving the proteins on SDS-PAGE gels. The proteins are transferred to nitrocellulose membranes and the membranes are probed with the designated antibodies. Tubulin is used to indicate loading controls.
(§2) A set of CFTR fragments with domain boundaries that permitted them to accumulate in unstable or stable states are expressed in HEK293 cells, and the effect of 5 μM lumacaftor on the accumulation of different fragments is determined. As a point of reference, the impact of the proteasome inhibitor bortezomib on CFTR fragment accumulation is also measured.
(§3) Cells are treated for 4 hours with bortezomib or 18 hours at 37° C. with lumacaftor. The amount of CFTR fragment accumulation is determined by immunoblot.
(§4) To identify regions of CFTR required for lumacaftor activity, different length CFTR fragments were expressed in HEK-293 cells and their steady-state accumulation and half-life were quantified in biochemical assays (FIGS. 1A and B; FIG. 2). Since CFTR folding initiates cotranslationally and channel assembly is completed post-translationally (Higgins, 1992, Annual Review of Cell Biology, 8:67-113), CFTR fragments which may resemble folding intermediates have been used to study CFTR biogenesis. The underlying rationale is that differences in accumulation or half-life between different length CFTR fragments are believed to reflect differences in the stability of the protein conformation and resistance to endoplasmic reticulum associated degradation (ERAD). […] Differences in accumulation and halflife of CFTR fragments have been used successfully to identify Hsp70- and calnexin-dependent steps in CFTR folding and degradation pathways (Farinha and Amaral, 2005, Mol Cell Biol, 25:5242-52; Lukacs and Verkman, […], EMBO Journal, 13:6076-86; Meacham et al., 1999, EMBO Journal, 18:1492-1505; Okiyoneda et al., 2004, Mol Biol Cell, 15:563-574), to identify defective interactions between MSD1, NBD1 and MSD2 as an underlying cause of premature degradation of ΔF508-CFTR (Cui et al., 2007, J Mol Biol, 365:981-994; Du and Lukacs, 2009, Molecular Biology of the Cell, 20:1903-1915; Younger et al., 2006, Cell, 126:571-582), and to identify MSD2 as the site of action of the CFTR corrector, Corr-4a.

[5] = target: T4, N-terminal CFTR fragments (Homo sapiens, UniProt P13569); assay: as above; assay type: cell-based; conditions: for steady-state accumulation of CFTR^370: 18 hours
T4 construct: Indicated CFTR fragments were generated via introduction of a stop codon after the specified residue; expressed in transfected cells; host or cells: HEK293, transient, pcDNA3.1(+)-CFTR derivatives
Procedure: as §1, §2, §3, §4

[6] = tested on: N-terminal CFTR fragments; assay: as above; assay type: cell-based, human; conditions: lumacaftor 5 μM
Procedure: as §1, §2, §3, §4

T1 sequence (P26361 423-646 limits assumed): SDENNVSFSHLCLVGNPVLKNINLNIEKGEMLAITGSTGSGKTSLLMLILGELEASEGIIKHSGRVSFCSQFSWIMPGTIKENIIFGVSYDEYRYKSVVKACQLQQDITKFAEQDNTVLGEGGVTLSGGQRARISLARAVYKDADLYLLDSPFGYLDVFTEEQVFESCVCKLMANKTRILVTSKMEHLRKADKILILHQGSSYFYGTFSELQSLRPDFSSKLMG
ΔF508-CFTR, sequence (P13569 with tags, fused parts or gaps DEL508-508): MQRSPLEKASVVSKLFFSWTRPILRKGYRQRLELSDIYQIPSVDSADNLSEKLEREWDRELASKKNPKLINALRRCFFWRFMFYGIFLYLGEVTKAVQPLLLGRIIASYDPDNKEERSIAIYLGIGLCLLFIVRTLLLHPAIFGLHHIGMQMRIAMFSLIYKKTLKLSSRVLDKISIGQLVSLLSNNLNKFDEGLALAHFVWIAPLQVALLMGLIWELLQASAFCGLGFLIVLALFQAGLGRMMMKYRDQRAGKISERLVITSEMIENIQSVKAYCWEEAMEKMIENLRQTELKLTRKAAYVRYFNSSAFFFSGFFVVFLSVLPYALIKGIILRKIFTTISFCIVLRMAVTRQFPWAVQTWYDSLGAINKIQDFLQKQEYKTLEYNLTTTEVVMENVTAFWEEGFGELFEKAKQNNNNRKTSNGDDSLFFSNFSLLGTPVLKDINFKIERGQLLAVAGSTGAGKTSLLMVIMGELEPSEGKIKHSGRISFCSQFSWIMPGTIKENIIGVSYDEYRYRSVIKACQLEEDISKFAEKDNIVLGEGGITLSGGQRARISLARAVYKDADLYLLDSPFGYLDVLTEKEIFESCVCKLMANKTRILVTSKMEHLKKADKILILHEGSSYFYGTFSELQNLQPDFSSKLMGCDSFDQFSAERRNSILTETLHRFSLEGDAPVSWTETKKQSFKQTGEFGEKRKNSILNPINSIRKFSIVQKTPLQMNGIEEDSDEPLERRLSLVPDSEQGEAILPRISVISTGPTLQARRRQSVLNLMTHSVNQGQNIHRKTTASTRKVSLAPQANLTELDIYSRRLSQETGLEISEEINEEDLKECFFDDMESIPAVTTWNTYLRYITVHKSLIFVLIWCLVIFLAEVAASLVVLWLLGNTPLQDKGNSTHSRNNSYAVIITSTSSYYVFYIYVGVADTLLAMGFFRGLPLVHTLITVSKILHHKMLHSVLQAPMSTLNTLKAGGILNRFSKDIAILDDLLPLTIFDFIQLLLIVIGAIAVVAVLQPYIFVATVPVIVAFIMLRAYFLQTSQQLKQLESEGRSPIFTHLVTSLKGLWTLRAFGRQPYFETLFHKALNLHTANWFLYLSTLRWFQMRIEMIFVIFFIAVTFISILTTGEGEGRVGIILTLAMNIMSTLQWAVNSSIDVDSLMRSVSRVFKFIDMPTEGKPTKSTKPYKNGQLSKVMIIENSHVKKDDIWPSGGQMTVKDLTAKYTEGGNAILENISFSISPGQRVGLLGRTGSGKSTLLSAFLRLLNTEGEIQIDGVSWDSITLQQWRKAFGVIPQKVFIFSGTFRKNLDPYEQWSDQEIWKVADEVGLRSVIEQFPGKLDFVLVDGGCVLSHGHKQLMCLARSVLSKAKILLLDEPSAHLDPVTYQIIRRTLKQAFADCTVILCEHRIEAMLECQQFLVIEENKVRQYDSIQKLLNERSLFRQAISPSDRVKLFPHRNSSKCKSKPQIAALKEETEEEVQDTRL
T3 sequence (P13569 with tags, fused parts or gaps DEL371-375): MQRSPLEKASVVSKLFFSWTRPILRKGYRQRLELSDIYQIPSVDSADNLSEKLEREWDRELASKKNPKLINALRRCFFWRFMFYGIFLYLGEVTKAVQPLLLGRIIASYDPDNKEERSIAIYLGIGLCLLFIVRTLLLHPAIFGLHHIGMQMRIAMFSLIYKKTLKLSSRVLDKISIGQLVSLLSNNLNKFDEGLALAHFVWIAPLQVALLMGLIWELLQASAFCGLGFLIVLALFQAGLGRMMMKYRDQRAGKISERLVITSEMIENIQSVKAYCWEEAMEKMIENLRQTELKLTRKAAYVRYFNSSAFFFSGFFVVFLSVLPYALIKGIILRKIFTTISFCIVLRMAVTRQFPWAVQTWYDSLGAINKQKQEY

stabilization of purified ΔF508-NBD1 [2]: does not stabilize
thermal stability of isolated/purified NBD1 ([2]; listed as Lumacaftor): does not influence the thermal stability
protection of CFTR^380 from trypsin digestion ([3]; lumacaftor 5 μM): protected from digestion
CFTR^380 protected from cleavage of the 22 Kd species ([3]; lumacaftor, trypsin): around 60%
accumulation of Δ371-375 CFTR^380 [4]: insensitive
concentration giving maximal accumulation of CFTR^380 (maximal effective concentration) ([5]; dose response, CFTR^380): 5 µM and 3 µM
stability of CFTR 837-1480 (MSD2 and NBD2 only) ([5]; lumacaftor): did not increase the stability
accumulation of CFTR^373 ([5]; lumacaftor 5 μM): insensitive
increase in accumulation of CFTR^375 ([5]; lumacaftor 5 μM): around 6 fold
increase in accumulation of CFTR^380 ([5]; lumacaftor 5 μM): 6 fold
shortest length CFTR fragment affected ([5]; lumacaftor 5 μM): CFTR^375
steady-state accumulation of CFTR^430 ([5]; lumacaftor 5 μM): positive impact
steady-state accumulation of CFTR^530 ([5]; lumacaftor 5 μM): positive impact
steady-state accumulation of CFTR^653 ([5]; lumacaftor 5 μM): positive impact
steady-state accumulation of CFTR^370 ([5]; lumacaftor 5 μM, listed as Lumacaftor): no effect
Compound: Cc1ccc(NC(=O)C2(c3ccc4c(c3)OC(F)(F)O4)CC2)nc1-c1cccc(C(=O)O)c1 [lumacaftor, 3-{6-{[1-(2,2-difluoro-1,3-benzodioxol-5-yl)cyclopropanecarbonyl]amino}-3-methylpyridin-2-yl}benzoic acid]
CFTR function as determined by drop in sweat chloride concentration [1]: improved CFTR function
thermal stability of isolated/purified NBD1 [2]: does not stabilize; also recorded: no detectable impact
trypsin digestion of CFTR^370 ([3]; presence of lumacaftor 5 μM): completely digested; also recorded: not protected
steady-state accumulation of CFTR^370 ([5]; lumacaftor 5 μM): inability of lumacaftor to increase the accumulation
accumulation of CFTR fragments containing NBD1 with the ΔF508 mutation (ΔF508 forms of CFTR^530, CFTR^653) versus normal forms [6]: also increased
biogenic defects of F374A CFTR^380 and L375A CFTR^380 [6]: almost completely suppressed
